Laboratory results as given in patent EP0210351A2, “Use of porphyrin derivatives in the detection and treatment of tumours” (Nippon Petrochemicals Co., Ltd., priority 1985, dated 1987).

Key:
[1] = test system: SmT-F transplanted tumors; assay: Photodynamic therapy of transplanted mouse tumors, necrotic/affected area by Evans Blue dye (Example 8); format: in vivo, DBA/2 Ha Ros-d+Ha mice; details: 100 mg/kg iv, 24 hrs between drug dose and light, 200 mW/cm^2, 300 J/cm^2, wavelength nm: 2-acetyl 680, 2-formyl 690, chlorin e6 665, deutero 655, meso 652, necrotic/affected tumor area
Method: The treatment and evaluation procedure is as follows: • DBA/2 Ha Ros-d+Ha mice with SmT-F transplanted tumors either in the exterior part of the hind leg or the side of the mouse were injected intravenously via the external jugular or intraperitoneally with the photosensitizing drug. At the specified time after injection, the area over the tumor was shaved and the light treatment begun.
Light from a Cooper Aurora argon pumped tunable dye laser was administered via a micro lens system (developed by Dr. Daniel Doiron, D,R.D. Consulting, Santa Barbara, California) coupled through a quartz fiber to the laser. The optical properties of the lens are such that the light exits the lens in a circular pattern with homogenous intensity throughout the lighted area, The diameter of the lighted area is a function of the distance from the lens,
The light intensity was measured with a Yellow Springs Instrument Model 65 A Radiometer at the point of treatment. A 1.5 cm diameter circle of the animal's skin, centered as closely as possible over the tumor, was irradiated in all the experiments. The intensity, wavelength, and dosage of light is included in the data for individual groups of animals. Wavelengths are adjusted, using a Hartridge reversion spectroscope to within 1 nm of the stated value.
Twenty four hours after light treatment, each mouse received 5 mg of Evans Blue Dye intravenously (1). After an additional two hours, the mice were sacrificed and the tumors were sectioned vertically through the center of the light treated area. Unaffected tumor was stained blue as was unaffected normal tissue. Necrotic or affected areas were white or red in appearance. Measurements on both the whole tumors and affected areas of the tumors were made vertically and horizontally with calipers to the nearest one half millimeter.

Morris Hepatoma 7777 = assay: Photodynamic therapy, depth of tumor necrosis by Evans Blue method (Example 6); format: in vivo, Buffalo rats; details: Tumor 7777; 20 Joules/cm^2; drug dose 20 mg/kg intravenously; 24 hrs between drug and light; 665 nm; 100 mW/cm^2; n=3
Method: The phtotdynamic therapy experiments have been carried out on Buffalo rats, using the transplantable tumor, Morris Hepatoma 7777. The tumors were transplanted subcutaneously on the outside of the thigh. During treatment, the tumors ranged in size between 1 and 2.5 cm in diameter.
The general treatment regime is as follows. The rats are injected with a solution of the chlorin prepared as follows: 20mg of the sodium salt of the chlorin was dissolved in 1 ml of 0.9% NaCl. The chlorin solution was then injected intravenously through the external jugular while the rat was anesthetized with ether. The volume of solution injected was calculated based upon the weight of the animal and the dosage, on a weight to weight basis, for the particular experiment. […]
The lens disperses the laser beam, providing a circular distribution of light with homogenous light intensity throughout the area of the incident light beam. […] The light intensity was determined using a Yellow Springs Instrument, Model 65A, radiometer. […]
Subsequent to illumination, the animal was returned to its cage and, 24 hours later, it was treated intravenously in the external jugular vein with 14 mg of Evans Blue dye, dissolved in 250 ul of 0.9% NaCl. […] The extent of tumor necrosis was assessed by the lack of dye uptake, and the depth of the necrotic cross section of the tumor was recorded in millimeters. […]

[2] = test system: Morris Hepatoma 7777 tumors; assay: Photodynamic therapy, chlorin e6 compared with Photofrin II, tumor necrosis by Evans Blue dye (Example 7); format: in vivo, Buffalo rats; details: 19 tumors treated; 20mg/kg intravenously; light 24 hours later; 665 nanometer; 100 mw/cm^2; 20 joules/cm^2
Method: Male Buffalo rats (approximately 200g each), with transplanted subcutaneous Morris Hepatoma 7777 tumors on the exterior portion of the hind legs were injected intravenously via the exterior jugular with chlorin-e6 or Photofrin II, ^(2) at a dosage of 20mg/kg. Twenty four hours later, the areas over the tumors were shaved and the light treatment was begun.
Light from a Cooper Aurora argon pumped tunable dye laser was administered via a micro lens system (developed by Dr. Daniel Doiron, D.R.D. Consulting, Santa Barbara, California) coupled through a quartz fiber to the laser. The optical properties of the lens are such that the light exits the lens in a circular pattern with a homogenous intensity throughout the lighted area. The diameter of the lighted area is a function of its distance from the lens.
The light intensity was measured with a Yellow Springs Instrument Model 65A Radiometer at the point of treatment. […] Photofrin II rats were treated with 630 nanometer light in accordance with the preponderance of photodynamic therapy experiments described in the literature, using this drug, and its forerunner HPD or Photofrin I. The wavelengths of light were determined with the aid of a Hartridge reversion spectroscope to within one nanometer. […]
Nineteen tumors were evaluated for Chlorin e6 and light effect while twenty two tumors were assessed for Photofrin II and light effect.

SMILES | X̄ ± s.d. (cm) [1] | range cm [1] | Range mm: range of depth of necrosis within the group (Morris Hepatoma 7777) | x̄ s.d.(n): mean depth of necrosis of the tumor tissue (Morris Hepatoma 7777) | number of tumors developing necrosis following treatment [2]
CCC1=C(C)c2cc3[nH]c(cc4nc(c(CC(=O)O)c5[nH]c(cc1n2)c(C)c5C(=O)O)C(CCC(=O)O)C4C)c(C)c3C(C)=O (stereo not shown) [2-acetyl chlorin e6] | 0.04±0.08 cm | 0.00-0.15 cm | – | – | –
CCC1=C(C)c2cc3[nH]c(cc4nc(c(CC(=O)O)c5[nH]c(cc1n2)c(C)c5C(=O)O)C(CCC(=O)O)C4C)c(C)c3C=O (stereo not shown) [2-formyl chlorin e6, 2-Desvinyl-2-FormylChlorin e6] | 0.33±0.12 cm | 0.20-0.45 cm | – | – | –
C=Cc1c(C)c2cc3nc(c(CC(=O)O)c4[nH]c(cc5nc(cc1[nH]2)C(C)=C5CC)c(C)c4C(=O)O)[C@@H](CCC(=O)O)[C@@H]3C [Chlorin e6] | 0.26±0.05 cm | 0.20-0.35 cm | 3.5-5 mm | 4.5±0.9 (3) mm | 17
CCC1=C(C)c2cc3cc(C)c(cc4nc(c(CC(=O)O)c5[nH]c(cc1n2)c(C)c5C(=O)O)C(CCC(=O)O)C4C)[nH]3 (stereo not shown) [deuterochlorin e6, Deuterochlorin e6] | 0.59±0.07 cm | 0.50-0.70 cm | – | – | –
CCC1=C(C)c2cc3[nH]c(cc4nc(c(CC(=O)O)c5[nH]c(cc1n2)c(C)c5C(=O)O)C(CCC(=O)O)C4C)c(C)c3CC (stereo not shown) [mesochlorin e6, Mesochlorin e6] | 0.06±0.08 cm | 0.00-0.15 cm | – | – | –
